Data reported in patent publication US11491120B2, “Pharmacological prophylactics against stress-induced affective disorders in females” (The Trustees of Columbia University in the City of New York, priority 2017, dated 2022).

Test system: female 129S6/SvEv mice
Assay: Forced swim test (FST), immobility time, after stress
[1] = 0.1 mg/kg, 1 week prophylactic drug
[2] = 0.3 mg/kg, 1 week prophylactic drug
[3] = 2.5 mg/kg, 1 week prophylactic drug
[4] = 10 mg/kg, 1 week prophylactic drug
[5] = Forced Swim Test Day 1, Dunnett test Sal vs. drug (0.025), 1 week prophylactic drug
[6] = Forced Swim Test Day 1, Dunnett test Sal vs. drug (0.075), 1 week prophylactic drug
[7] = Forced Swim Test Day 1, Dunnett test Sal vs. drug (0.1), 1 week prophylactic drug
[8] = Forced Swim Test Day 1, Dunnett test Sal vs. drug (0.3), 1 week prophylactic drug
[9] = Forced Swim Test Day 1, Dunnett test Sal vs. drug (2.5), 1 week prophylactic drug
[10] = Forced Swim Test Day 1, Dunnett test Sal vs. drug (10), 1 week prophylactic drug

SMILES: N[C@]1(c2ccccc2Cl)CCC[C@H](O)C1=O [(2S,6S)-HNK]
- p, Sal vs. drug, Dunnett test: Immobility Time (min 1), Forced Swim Test Day 2 [1]: 0.0291
- p, Sal vs. drug, Dunnett test: Immobility Time (min 1-6), Forced Swim Test Day 2 [1]: 0.2191
- p, Sal vs. drug, Dunnett test: Immobility Time (min 2), Forced Swim Test Day 2 [1]: 0.4741
- p, Sal vs. drug, Dunnett test: Immobility Time (min 4), Forced Swim Test Day 2 [1]: 0.9995
- p, Sal vs. drug, Dunnett test: Immobility Time (min 5), Forced Swim Test Day 2 [1]: 0.9990
- p, Sal vs. drug, Dunnett test: Immobility Time (min 6), Forced Swim Test Day 2 [1]: 0.9952
- p, Sal vs. drug, Dunnett test: Immobility Time Average (min 3-6), Forced Swim Test Day 2 [1]: 0.9623
- p, Sal vs. drug, Dunnett test: Immobility Time (min 1), Forced Swim Test Day 2 [2]: 0.2627
- p, Sal vs. drug, Dunnett test: Immobility Time (min 1-6), Forced Swim Test Day 2 [2]: 0.9993
- p, Sal vs. drug, Dunnett test: Immobility Time (min 2), Forced Swim Test Day 2 [2]: 0.7509
- p, Sal vs. drug, Dunnett test: Immobility Time (min 4), Forced Swim Test Day 2 [2]: 0.9997
- p, Sal vs. drug, Dunnett test: Immobility Time (min 5), Forced Swim Test Day 2 [2]: 0.9882
- p, Sal vs. drug, Dunnett test: Immobility Time (min 6), Forced Swim Test Day 2 [2]: 0.4546
- p, Sal vs. drug, Dunnett test: Immobility Time Average (min 3-6), Forced Swim Test Day 2 [2]: 0.9999
- p, Sal vs. drug, Dunnett test: Immobility Time (min 1), Forced Swim Test Day 2 [3]: 0.9998
- p, Sal vs. drug, Dunnett test: Immobility Time (min 1-6), Forced Swim Test Day 2 [3]: 0.5400
- p, Sal vs. drug, Dunnett test: Immobility Time (min 2), Forced Swim Test Day 2 [3]: >0.9999
- p, Sal vs. drug, Dunnett test: Immobility Time (min 4), Forced Swim Test Day 2 [3]: 0.8764
- p, Sal vs. drug, Dunnett test: Immobility Time (min 5), Forced Swim Test Day 2 [3]: 0.6601
- p, Sal vs. drug, Dunnett test: Immobility Time (min 6), Forced Swim Test Day 2 [3]: 0.9992
- p, Sal vs. drug, Dunnett test: Immobility Time Average (min 3-6), Forced Swim Test Day 2 [3]: 0.9957
- p, Sal vs. drug, Dunnett test: Immobility Time (min 1), Forced Swim Test Day 2 [4]: 0.6616
- p, Sal vs. drug, Dunnett test: Immobility Time (min 1-6), Forced Swim Test Day 2 [4]: >0.9999
- p, Sal vs. drug, Dunnett test: Immobility Time (min 2), Forced Swim Test Day 2 [4]: 0.9991
- p, Sal vs. drug, Dunnett test: Immobility Time (min 4), Forced Swim Test Day 2 [4]: 0.9999
- p, Sal vs. drug, Dunnett test: Immobility Time (min 5), Forced Swim Test Day 2 [4]: 0.9877
- p, Sal vs. drug, Dunnett test: Immobility Time (min 6), Forced Swim Test Day 2 [4]: 0.9994
- p, Sal vs. drug, Dunnett test: Immobility Time Average (min 3-6), Forced Swim Test Day 2 [4]: 0.9999
- * (significance), Immobility Time (min 1) [5]: ** (** p<0.01)
- p, Immobility Time (min 1) [5]: 0.0031
- p, Immobility Time (min 1-6) [5]: 0.8484
- p, Immobility Time (min 3) [5]: 0.9997
- p, Immobility Time (min 4) [5]: >0.9999
- p, Immobility Time (min 5) [5]: >0.9999
- p, Immobility Time (min 6) [5]: 0.9993
- p, Immobility Time Average (min 3-6) [5]: 0.9997
- p, Immobility Time (min 1) [6]: 0.0820
- p, Immobility Time (min 1-6) [6]: 0.0650
- p, Immobility Time (min 3) [6]: 0.9489
- p, Immobility Time (min 4) [6]: 0.9482
- p, Immobility Time (min 5) [6]: 0.9436
- p, Immobility Time (min 6) [6]: 0.6982
- p, Immobility Time Average (min 3-6) [6]: 0.7901
- * (significance), Immobility Time (min 1) [7]: *** (*** p<0.0001)
- p, Immobility Time (min 1) [7]: <0.0001
- p, Immobility Time (min 1-6) [7]: 0.5664
- p, Immobility Time (min 3) [7]: 0.9993
- p, Immobility Time (min 4) [7]: 0.9993
- p, Immobility Time (min 5) [7]: 0.9869
- p, Immobility Time (min 6) [7]: >0.9999
- p, Immobility Time Average (min 3-6) [7]: 0.9992
- * (significance), Immobility Time (min 1) [8]: * (* p<0.05)
- * (significance), Immobility Time (min 1-6) [8]: * (* p<0.05)
- p, Immobility Time (min 1) [8]: 0.0277
- p, Immobility Time (min 1-6) [8]: 0.0361
- p, Immobility Time (min 3) [8]: 0.4573
- p, Immobility Time (min 4) [8]: 0.8163
- p, Immobility Time (min 5) [8]: 0.9482
- p, Immobility Time (min 6) [8]: 0.6194
- p, Immobility Time Average (min 3-6) [8]: 0.5532
- * (significance), Immobility Time (min 1) [9]: * (* p<0.05)
- p, Immobility Time (min 1) [9]: 0.0147
- p, Immobility Time (min 1-6) [9]: 0.9878
- p, Immobility Time (min 3) [9]: 0.9995
- p, Immobility Time (min 4) [9]: 0.9958
- p, Immobility Time (min 5) [9]: 0.9958
- p, Immobility Time (min 6) [9]: 0.9992
- p, Immobility Time Average (min 3-6) [9]: 0.9990
- * (significance), Immobility Time (min 1) [10]: ** (** p<0.01)
- p, Immobility Time (min 1) [10]: 0.0064
- p, Immobility Time (min 1-6) [10]: >0.9999
- p, Immobility Time (min 3) [10]: 0.9307
- p, Immobility Time (min 4) [10]: 0.9497
- p, Immobility Time (min 5) [10]: 0.9952
- p, Immobility Time (min 6) [10]: 0.5393
- p, Immobility Time Average (min 3-6) [10]: 0.8035
- Immobility on FST Day 2 vs saline (all doses of (2S,6S)-HNK and all other dose groups, 1 week before CFC, female mice): failed to reduce average immobility
- Prophylactic efficacy against stress-induced depressive-like behavior (single injection 1 week before stressor, female mice): but not (2S,6S)-HNK
